Structures are written as SMILES. Read-outs that look alike come from different tables or passages of the source.

Series [1] in a line: in vitro. On the set-up: species or system HB2, CCD841. The note with it: human, hek293 cells.
Series [2] in a line: in vitro. On the set-up: species or system CCD841, HEK293. To be noted: human, hb2 cells, read-out: HB-2 Cells Viability (%).
For another series, the target named is T1, NUDT7 (Homo sapiens, UniProt P0C024).
T1 construct: residues 14-235, E. coli, pNIC28-Bsa4, N-terminal His6 tag removed by TEV, construct 26672 Da
Also on record: Intact protein LC/MS covalent labelling, fragments in pools of five, 200 uM each, 4 °C. The note with it: 24 h, 4 °C, pool of five; 200 µM; covalent. The method, then: (§1) Incubations were performed at 200 μM for each compound and 2 μM of protein (10 μM for BSA) for 24 h at 4 °C with moderate shaking. Incubation buffers varied among proteins (PBS pH 7.4 for QSOX1 and BSA; 10 mM HEPES pH 7.5, 0.3 M NaCl, 0.5 mM TCEP for PCAF, UPS8, and NUDT7; […]; 10 mM Na2HPO4 pH 7.5 100 mM NaCl 5 mM β-mercaptoethanol for NV3CP; 20 mM Na phosphate pH 7.5 for NNMT; […]. The reaction was stopped by quenching with formic acid, 0.4% final concentration. Each protein was incubated with the electrophilic library in pools of five compounds per well. The pool’s composition maximized the difference in mass between fragments in the same well. Incubations were performed with each fragment at 200 μM, for 24 h at 4 °C, to allow the screening of proteins that are not stable for long time periods at higher temperatures. Following incubation, we used intact protein [compound left out] chromatography/mass spectrometry (LC/MS) to identify the fragments and quantify their labeling (Figure 3A). […] There was good agreement between the percent of labeling of NUDT7 by 100 random individual compounds and that obtained in pools of five (R^2=0.78; Figure S6 and Data set 2 in the Supporting Information).

A further series concerns the target T2, BSA (Bos taurus, UniProt P02769).
T2 construct: gene ALB
Also on record: Intact protein LC/MS covalent labelling, fragments in pools of five, 200 uM each, 4 °C. The note with it: 24 h, 4 °C, pool of five; 200 µM; covalent. As to the method:
as §1

The target of the next series is T3, PCAF (Homo sapiens, UniProt Q92831).
T3 construct: gene KAT2B
Also on record: Intact protein LC/MS covalent labelling, fragments in pools of five, 200 uM each, 4 °C. To be noted: 24 h, 4 °C, pool of five; 200 µM; covalent. As to the method: as §1

Series [3] in a line: in vitro. To be noted: human, ccd841 cells. Also on record: species or system HB2, HEK293.

T1 sequence (P0C024 14-235): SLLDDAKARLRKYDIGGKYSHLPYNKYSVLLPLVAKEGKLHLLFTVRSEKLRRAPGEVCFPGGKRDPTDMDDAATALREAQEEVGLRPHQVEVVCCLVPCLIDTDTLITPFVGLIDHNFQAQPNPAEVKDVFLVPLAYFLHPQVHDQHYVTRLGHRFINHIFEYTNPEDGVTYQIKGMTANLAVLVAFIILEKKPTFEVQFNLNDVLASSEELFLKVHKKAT
T2 sequence (P02769 whole entry): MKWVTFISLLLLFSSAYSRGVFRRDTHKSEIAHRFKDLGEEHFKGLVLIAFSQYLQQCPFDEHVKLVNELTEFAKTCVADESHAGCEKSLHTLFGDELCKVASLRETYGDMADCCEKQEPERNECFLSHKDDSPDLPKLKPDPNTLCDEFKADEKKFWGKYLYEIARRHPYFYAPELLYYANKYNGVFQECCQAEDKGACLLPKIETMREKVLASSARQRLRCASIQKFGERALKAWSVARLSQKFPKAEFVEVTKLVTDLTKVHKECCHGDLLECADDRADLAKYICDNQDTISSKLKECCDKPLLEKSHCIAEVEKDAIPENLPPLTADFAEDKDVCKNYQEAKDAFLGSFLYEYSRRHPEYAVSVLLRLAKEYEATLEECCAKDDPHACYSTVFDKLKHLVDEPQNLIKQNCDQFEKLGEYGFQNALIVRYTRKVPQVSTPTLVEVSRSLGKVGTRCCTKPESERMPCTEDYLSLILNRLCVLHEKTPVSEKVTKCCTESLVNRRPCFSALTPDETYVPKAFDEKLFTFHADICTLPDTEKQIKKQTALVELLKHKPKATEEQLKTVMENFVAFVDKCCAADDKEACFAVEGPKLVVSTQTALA
T3 sequence (Q92831 whole entry): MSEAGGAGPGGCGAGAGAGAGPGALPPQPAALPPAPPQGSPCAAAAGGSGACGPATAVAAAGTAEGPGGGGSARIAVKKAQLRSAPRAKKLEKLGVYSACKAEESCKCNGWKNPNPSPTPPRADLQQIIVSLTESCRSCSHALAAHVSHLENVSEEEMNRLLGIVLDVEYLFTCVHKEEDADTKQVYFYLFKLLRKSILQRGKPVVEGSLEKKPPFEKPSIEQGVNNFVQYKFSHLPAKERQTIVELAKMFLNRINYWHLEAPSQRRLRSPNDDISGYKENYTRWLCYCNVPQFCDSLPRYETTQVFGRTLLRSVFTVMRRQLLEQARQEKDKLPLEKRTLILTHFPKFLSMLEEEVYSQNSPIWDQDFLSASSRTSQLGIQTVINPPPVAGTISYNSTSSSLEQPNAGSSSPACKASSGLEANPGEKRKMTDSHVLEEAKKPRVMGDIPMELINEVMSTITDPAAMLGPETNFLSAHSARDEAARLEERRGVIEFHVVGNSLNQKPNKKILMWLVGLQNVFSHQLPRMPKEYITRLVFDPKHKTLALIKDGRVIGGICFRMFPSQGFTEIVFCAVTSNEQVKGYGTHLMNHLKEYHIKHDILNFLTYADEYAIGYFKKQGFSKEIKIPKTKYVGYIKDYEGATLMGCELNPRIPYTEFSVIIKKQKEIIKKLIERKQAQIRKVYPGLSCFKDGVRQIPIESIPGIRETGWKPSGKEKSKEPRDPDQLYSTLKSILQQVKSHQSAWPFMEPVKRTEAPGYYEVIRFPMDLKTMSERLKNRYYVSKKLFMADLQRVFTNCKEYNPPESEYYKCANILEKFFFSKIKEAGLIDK

As usually defined, the viability is a read-out of living cells in per cent, often relative to untreated cells. For the compound `O=C(CCl)Nc1ccc(N2CCCCCC2)cc1` [PCM-0102199], the viability at 48 h, 10 µM was 4% in “in vitro [1]”, 7% in the series “in vitro [2]” and 31.8% in the series “in vitro [3]”. Further, the NUDT7 at NUDT7 is recorded as 0.08. Further, the BSA at BSA is listed as 0. On PCAF, the PCAF amounted to 0.

Take `C=CC(=O)N1CCC(NC(=O)c2cc(C)on2)CC1` [PCM-0102557]: the viability at 48 h, 10 µM amounted to 83.7% in the series “in vitro [1]”, 101% in “in vitro [2]” and 101% in the series “in vitro [3]”. On NUDT7, this compound gave an NUDT7 of 0. For the same compound, the BSA on BSA turned out to be 0. On PCAF, this compound showed a PCAF of 0.

Turning to `Cc1cc(N2CCCC2)ccc1NC(=O)CCl` [PCM-0102301], the viability at 48 h, 10 µM worked out at 40.7% in the series “in vitro [1]”, 47.9% in the series “in vitro [2]” and 78.6% in “in vitro [3]”. Besides, the NUDT7 at NUDT7 turned out to be 0.24. At BSA, the BSA stood at 0. At PCAF, the PCAF is on record as 0.

Consider `C=CC(=O)NC1(c2nc(C)cs2)CCOCC1` [PCM-0102601], for which the viability at 48 h, 10 µM came to 109% in the series “in vitro [1]”, 103% in the series “in vitro [2]” and 102% in the series “in vitro [3]”. For the same compound, the NUDT7 on NUDT7 was determined as 0. Besides, the BSA on BSA is listed as 0. The PCAF on PCAF is reported as 0.

For the compound `N#Cc1ccsc1NC(=O)CCl` [PCM-0102768], the viability at 48 h, 10 µM in “in vitro [1]” worked out at 45.9%; in “in vitro [2]”, 46.1%; in the series “in vitro [3]”, 74.6%. The PCAF on PCAF amounted to 0.

`C=CC(=O)N1CCn2c(cc3c(Cl)cccc32)C1` [PCM-0102835]: the results for the viability at 48 h, 10 µM in the series “in vitro [1]”, in “in vitro [2]” and in “in vitro [3]” were 69.7%, 83.4% and 91.6%, respectively. Besides, the NUDT7 on NUDT7 was found to be 0. On BSA, this compound yielded a BSA of 0. For the same compound, at PCAF, the PCAF is recorded as 0.

As to `O=C(CCl)NNc1ccccn1` [PCM-0102319], the viability at 48 h, 10 µM in “in vitro [1]” was 94.6%; in “in vitro [2]”, 106%; in the series “in vitro [3]” it was 106%. Besides, the NUDT7 at NUDT7 turned out to be 0. The compound also displayed a BSA on BSA of 0. Also, the PCAF at PCAF turned out to be 0.

As to `COc1ccc(C(=O)NNC(=O)CCl)cc1` [PCM-0102115], the viability at 48 h, 10 µM was 79.4% in “in vitro [1]”, 91.7% in “in vitro [2]” and 81.5% in the series “in vitro [3]”. This compound registered an NUDT7 at NUDT7 of 0.11. At BSA, this compound registered a BSA of 0. The compound further registered a PCAF on PCAF of 0.

Regarding `C=CC(=O)N1CCn2c(cc3cc(Cl)ccc32)C1` [PCM-0102661], the viability at 48 h, 10 µM is 87.1% in “in vitro [1]”, 81.5% in the series “in vitro [2]” and 109% in the series “in vitro [3]”. The same compound came in with an NUDT7 at NUDT7 of 0. For the same compound, the BSA on BSA was 0.18. The compound also displayed a PCAF on PCAF of 0.

Turning to `C=CC(=O)NC(C)c1ccc(C(F)(F)F)nc1Cl` (stereo not drawn) [PCM-0103053], the values for the viability at 48 h, 10 µM in the series “in vitro [1]”, in “in vitro [2]” and in the series “in vitro [3]” were 85.5%, 99.6% and 113%, respectively. Further, the BSA on BSA is 0. The compound also came in with a PCAF on PCAF of 0.

Regarding `O=C(CCl)NCc1ccc(Cl)cc1` [PCM-0102668], the viability at 48 h, 10 µM in the series “in vitro [1]” came out at 83.7%; in the series “in vitro [2]”, 108%; in “in vitro [3]”, 112%. The compound also came in with an NUDT7 on NUDT7 of 0. At BSA, this compound gave a BSA of 0. Moreover, at PCAF, the PCAF is 0.

On to `C=CC(=O)NC1(C#N)CCOC1` (stereo not drawn) [PCM-0103049], for which the viability at 48 h, 10 µM came to 115% in “in vitro [1]”, 99.3% in the series “in vitro [2]” and 95.7% in the series “in vitro [3]”. The compound also registered an NUDT7 on NUDT7 of 0. Further, the BSA at BSA was determined as 0. The PCAF at PCAF was 0.

Take `O=C(CCl)Nc1ccc2c(c1)OCCO2` [PCM-0102324]: the results for the viability at 48 h, 10 µM in the series “in vitro [1]”, in the series “in vitro [2]” and in “in vitro [3]” were 8.2%, 35.2% and 63.3%, respectively. This compound returned a BSA on BSA of 0. On PCAF, this compound gave a PCAF of 0.

Regarding `CN(Cc1c(F)cccc1Cl)C(=O)CCl` [PCM-0102184], the viability at 48 h, 10 µM was found to be 4.9% in the series “in vitro [1]”, 9.3% in the series “in vitro [2]” and 42.2% in “in vitro [3]”. Moreover, the BSA on BSA amounted to 0. Further, on PCAF, the PCAF turned out to be 0.

For the compound `CC(NC(=O)CCl)C(=O)O` (stereo not drawn) [PCM-0102990], the viability at 48 h, 10 µM in “in vitro [1]” is 103%; in “in vitro [2]”, 102%; in “in vitro [3]” it was 115%. At NUDT7, the NUDT7 is 0. Also, on BSA, the BSA was determined as 0. Further, at PCAF, the PCAF was determined as 0.

For the compound `C=CC(=O)NCc1cnc(C)s1` [PCM-0102587], the viability at 48 h, 10 µM in the series “in vitro [1]” was 83.2%; in “in vitro [2]” it was 107%; in the series “in vitro [3]”, 111%. Moreover, the NUDT7 on NUDT7 came out at 0. Moreover, the BSA at BSA was 0.24. The compound further displayed a PCAF on PCAF of 0.

Take `O=C(CCl)Nc1nc(-c2ccco2)cs1` [PCM-0102979]: the viability at 48 h, 10 µM in “in vitro [1]” amounted to 66%; in the series “in vitro [2]” it was 44%; in “in vitro [3]” it was 89.7%. This compound showed an NUDT7 on NUDT7 of 0.25. The BSA at BSA is given as 0. The compound also yielded a PCAF on PCAF of 0.

As to `O=C(CCl)Nc1ccccc1O` [PCM-0102907], the viability at 48 h, 10 µM in “in vitro [1]” stood at 80.8%; in the series “in vitro [2]”, 106%; in the series “in vitro [3]”, 95.4%. The compound also gave an NUDT7 on NUDT7 of 0.36. The compound also came in with a BSA at BSA of 0. On PCAF, this compound displayed a PCAF of 0.

For `C=CC(=O)NC1c2ccccc2CC12CCOCC2` (stereo not drawn) [PCM-0102445], the viability at 48 h, 10 µM came to 111% in “in vitro [1]”, 103% in “in vitro [2]” and 106% in “in vitro [3]”. This compound displayed an NUDT7 at NUDT7 of 0. The compound further displayed a BSA on BSA of 0. This compound also registered a PCAF at PCAF of 0.

For the compound `CC1CCN(c2ccc(NC(=O)CCl)cc2)CC1.Cl` [PCM-0102235], the viability at 48 h, 10 µM was 18.9% in “in vitro [1]”, 21.9% in the series “in vitro [2]” and 48.3% in “in vitro [3]”. Besides, the NUDT7 at NUDT7 is on record as 0. The compound also gave a BSA at BSA of 0. The compound also yielded a PCAF on PCAF of 0.

For `O=C(CCl)N1CCc2cc([N+](=O)[O-])ccc21` [PCM-0102403], the viability at 48 h, 10 µM in “in vitro [1]” is 50.4%; in “in vitro [2]” it was 21.2%; in the series “in vitro [3]” it was 51.4%. For the same compound, at NUDT7, the NUDT7 is listed as 0. On BSA, this compound yielded a BSA of 0. Also, the PCAF on PCAF was found to be 0.

Regarding `O=C(CCl)Nc1c(Cl)cccc1Cl` [PCM-0102234], the viability at 48 h, 10 µM in the series “in vitro [1]” was found to be 101%; in “in vitro [2]” it was 96.3%; in “in vitro [3]” it was 77.5%. At NUDT7, this compound came in with an NUDT7 of 0.64. For the same compound, at BSA, the BSA is reported as 0. On PCAF, the PCAF is 0.45.

As to `O=C(CCl)N1CC=C(c2c[nH]c3ccccc23)CC1` [PCM-0102631], the viability at 48 h, 10 µM in the series “in vitro [1]” was found to be 46.3%; in “in vitro [2]”, 15.3%; in “in vitro [3]” it was 77.7%. At BSA, the BSA was determined as 0. The PCAF on PCAF is listed as 0.

As to `C=CC(=O)Nc1ccc(C)c(F)c1` [PCM-0102878], the viability at 48 h, 10 µM in “in vitro [1]” is 78.8%; in “in vitro [2]” it was 102%; in the series “in vitro [3]”, 97.9%. Moreover, on NUDT7, the NUDT7 was 0. For the same compound, on BSA, the BSA was found to be 0. Moreover, on PCAF, the PCAF was 0.
